Experimental data published in patent US12570687B2, “Triterpenoid compounds, pharmaceutical compositions thereof, and their use for treating a nuclear receptor subfamily 4 group a member 1-mediated disease” (NUCMITO PHARMACEUTICALS COMPANY LIMITED, priority 2019, dated 2026).

How the values were obtained:
Assay type in all cases: cell-based
[1] = test system: A431 (epidermoid carcinoma); assay: MTT antiproliferative assay, A431; conditions: Homo sapiens, A-431, A431, 10 μM, 48 or 72 h, read-out: inhibition of cell growth, A431
Procedure: (§1) The antiproliferative activity of a test compound was determined in cell lines: MDA-MB-231 (breast cancer), HepG2 (liver cancer), SW620 (colon cancer), A375 (malignant melanoma), A431 (epidermoid carcinoma), A549 (lung adenocarcinoma), and HeLa ([…]). MDA-MB-231, HepG2, SW480, SW620, A375, and A431 cells were cultured in Dulbecco's modified Eagle's medium (DMEM) containing 10% fetal bovine serum (FBS). HeLa cells were cultured in MEM/EBSS (MEM) containing 10% FBS. A549 cells were maintained in Kaighn's modification of Ham's F-12 medium containing 10% FBS. The colorimetric MTT (3-(4,5-dimethylthiazol-2-yl)-2,5-diphenyltetrazolium bromide) assay was used to measure the cell viability of different cells following treatment with the test compound.
(§2) Briefly cells were seeded in a 96 well plate at a density of 2,000-5,000 cells/well. Following attachment, the cells were treated with the test compound in media at various concentrations ranging from 0.137 to 100 μM or at a single concentration of 10 μM. After the cells were incubated at 37° C. for 48 or 72 h, MTT (20 μL, 5 mg/mL in PBS) was added to each well and the cells were incubated for another 4 h at 37° C. The supernatant was removed carefully and 150 μL of DMSO was added to each well to dissolve the MTT formazan crystals. The plate was shaken for 15-20 min and the absorbance value of each well was determined using a multi-well plate reader at 490 nm. The wells treated with DMSO were taken as a vehicle control. Data were also obtained similarly for all the replicates and the percentage viability was determined with respect to the DMSO-treated cells. The results are summarized in Table 1 below, wherein A represents no less than 80% inhibition of cell growth at 10 μM; B represents no less than 50% but less than 80% inhibition of cell growth at 10 μM; C represents no less than 30% but less than 50% inhibition of cell growth at 10 μM; and D represents less than 30% inhibition of cell growth at 10 μM.

[2] = test system: A549 (lung adenocarcinoma); assay: MTT antiproliferative assay, A549; conditions: Homo sapiens, A549, 10 μM, 48 or 72 h, read-out: inhibition of cell growth, A549
Procedure: as §1, §2

[3] = test system: MDA-MB-231 (breast cancer); assay: MTT antiproliferative assay, MDA-MB-231; conditions: Homo sapiens, MDA-MB-231, 10 μM, 48 or 72 h, read-out: inhibition of cell growth, MDA-MB-231
Procedure: as §1, §2

HepG2 (liver cancer) = assay: MTT antiproliferative assay, HepG2; conditions: Homo sapiens, HepG2, 10 μM, 48 or 72 h, read-out: inhibition of cell growth, HepG2
Procedure: as §1, §2

HeLa (ovarian cancer) = assay: MTT antiproliferative assay, HeLa; conditions: Homo sapiens, 48 or 72 h, read-out: inhibition of cell growth, HELA
Procedure: as §1, §2

[4] = test system: A375 (malignant melanoma); assay: MTT antiproliferative assay, A375; conditions: Homo sapiens, A-375, A375, 10 μM, 48 or 72 h, read-out: inhibition of cell growth, A375
Procedure: as §1, §2

SW620 (colon cancer) = assay: MTT antiproliferative assay, SW620; conditions: Homo sapiens, SW-620, SW620, 10 μM, 48 or 72 h, read-out: inhibition of cell growth, SW620
Procedure: as §1, §2

Row | SMILES | inhibition at 10 µM [1] [%] | inhibition at 10 µM [2] [%] | inhibition at 10 µM [3] [%] | inhibition at 10 µM (HepG2 (liver cancer)) [%] | inhibition at 10 µM (HeLa (ovarian cancer)) [%] | inhibition at 10 µM [4] [%] | inhibition at 10 µM (SW620 (colon cancer)) [%]
1 | CO[C@@]1(C)C2=CC=C3[C@@](C)(CC[C@@]4(C)[C@@H]5C[C@](C)(C(=O)O)CC[C@]5(C)CC[C@]34C)C2=CC(=O)C1=NNC(=O)c1ccncc1 [Compound A52, (2R,4aS,6aS,9S,12bR,14aS,14bR)-9-Methoxy-2,4a,6a,9,12b,14a-hexamethyl-11-oxo-10-{[(pyridin-4-yl)formamido]imino}-1,2,3,4,4a,5,6,6a,9,10,11,12b,13,14,14a,14b-hexadecahydropicene-2-carboxylic acid] | < 30 | < 30 | < 30 | < 30 | < 30 | < 30 | < 30
2 | CCO[C@]1(C)C(=O)C(=O)C=C2C1=CC=C1[C@@]2(C)CC[C@@]2(C)[C@@H]3C[C@](C)(C(=O)O)CC[C@]3(C)CC[C@]12C [Compound A28, (2R,4aS,6aS,9S,12bR,14aS,14bR)-9-ethoxy-2,4a,6a,9,12b,14a-hexamethyl-10,11-dioxo-1,2,3,4,4a,5,6,6a,9,10,11,12b,13,14,14a,14b-hexadecahydropicene-2-carboxylic acid] | 50 to 80 | 30 to 50 | 50 to 80 | 50 to 80 | ≥ 80 | 30 to 50 | 30 to 50
3 | CO[C@@]1(C)C2CCC3[C@@](C)(CC[C@@]4(C)[C@@H]5C[C@](C)(C(=O)O)CC[C@]5(C)CC[C@]34C)C2=CC(=O)[C@@H]1O (stereo partly drawn) [Compound A21, (2R,4aS,6aR,9S,10R,12bR,14aS,14bR)-10-hydroxy-9-methoxy-2,4a,6a,9,12b,14a-hexamethyl-11-oxo-1,2,3,4,4a,5,6,6a,6b,7,8,8a,9,10,11,12b,13,14,14a,14b-icosahydropicene-2-carboxylic acid] | < 30 | < 30 | < 30 | < 30 | < 30 | < 30 | < 30
4 | CO[C@]1(C)C(=O)C(=O)C=C2C1=CC=C1[C@@]2(C)CC[C@@]2(C)[C@@H]3C[C@](C)(C(=O)NCCO)CC[C@]3(C)CC[C@]12C [Compound A44, (2R,4aS,6aS,9S,12bR,14aS,14bR)—N-(2-hydroxyethyl)-9-methoxy-2,4a,6a,9,12b,14a-hexamethyl-10,11-dioxo-1,2,3,4,4a,5,6,6a,9,10,11,12b,13,14,14a,14b-hexadecahydropicene-2-carboxamide] | ≥ 80 | ≥ 80 | ≥ 80 | ≥ 80 | ≥ 80 | 30 to 50 | 50 to 80
5 | CCCC(=O)O[C@H]1C(=O)C=C2C(=CC=C3[C@@]2(C)CC[C@@]2(C)[C@@H]4C[C@](C)(C(=O)NC)CC[C@]4(C)CC[C@]32C)[C@]1(C)OC [Compound A23, (3R,4S,6bS,8aS,11R,12aR,12bS,14aR)-4-methoxy-4,6b,8a,11,12b,14a-hexamethyl-11-(methylcarbamoyl)-2-oxo-2,3,4,6b,7,8,8a,9,10,11,12,12a,12b,13,14,14a-hexadecahydropicen-3-yl butyrate] | ≥ 80 | ≥ 80 | ≥ 80 | ≥ 80 | ≥ 80 | 50 to 80 | ≥ 80
6 | CCCNC(=O)[C@]1(C)CC[C@]2(C)CC[C@]3(C)C4=CC=C5C(=CC(=O)C(=O)[C@@]5(C)OC)[C@]4(C)CC[C@@]3(C)[C@@H]2C1 [Compound A12, (2R,4aS,9S,6aS,12bR,14aS,14bR)—N-propyl-9-methoxy-2,4a,6a,9,12b,14a-hexamethyl-10,11-dioxo-1,2,3,4,4a,5,6,6a,9,10,11,12b,13,14,14a,14b-hexadecahydropicene-2-carboxamide] | ≥ 80 | ≥ 80 | 50 to 80 | ≥ 80 | ≥ 80 | 30 to 50 | 50 to 80
7 | CCNC(=O)[C@]1(C)CC[C@]2(C)CC[C@]3(C)C4=CC=C5C(=CC(=O)C(=O)[C@@]5(C)OC)[C@]4(C)CC[C@@]3(C)[C@@H]2C1 [Compound A10, (2R,4aS,6aS,9S,12bR,14aS,14bR)—N-ethyl-9-methoxy-2,4a,6a,9,12b,14a-hexamethyl-10,11-dioxo-1,2,3,4,4a,5,6,6a,9,10,11,12b,13,14,14a,14b-hexadecahydropicene-2-carboxamide] | 50 to 80 | 30 to 50 | ≥ 80 | 50 to 80 | ≥ 80 | 30 to 50 | 50 to 80
8 | CO[C@@]1(C)C2=CC=C3[C@@](C)(CC[C@@]4(C)[C@@H]5C[C@](C)(C(=O)O)CC[C@]5(C)CC[C@]34C)C2=CC(=O)/C1=C/C#N [Compound A31, (2R,4aS,6aS,9S,10E,12bR,14aS,14bR)-10-(cyanomethylidene)-9-methoxy-2,4a,6a,9,12b,14a-hexamethyl-11-oxo-1,2,3,4,4a,5,6,6a,9,10,11,12b,13,14,14a,14b-hexadecahydropicene-2-carboxylic acid] | 50 to 80 | 50 to 80 | ≥ 80 | 50 to 80 | ≥ 80 | 50 to 80 | ≥ 80
9 | CO[C@@]1(C)C2=CC=C3[C@@](C)(CC[C@@]4(C)[C@@H]5C[C@](C)(C(=O)O)CC[C@]5(C)CC[C@]34C)C2=CC(=O)[C@@H]1O [Compound A15, (2R,4aS,6aS,9S,10R,12bR,14aS,14bR)-10-hydroxy-9-methoxy-2,4a,6a,9,12b,14a-hexamethyl-11-oxo-1,2,3,4,4a,5,6,6a,9,10,11,12b,13,14,14a,14b-hexadecahydropicene-2-carboxylic acid] | 50 to 80 | < 30 | ≥ 80 | 30 to 50 | 50 to 80 | 50 to 80 | 30 to 50
10 | COC1(C)C2=CC=C3[C@@](C)(CC[C@@]4(C)[C@@H]5C[C@](C)(C(=O)O)CC[C@]5(C)CC[C@]34C)C2=CC(=O)C1CC#N (stereo in doubt) [Compound A38, (2R,4aS,6aS,9S,12bR,14aS,14bR)-10-(cyanomethyl)-9-methoxy-2,4a,6a,9,12b,14a-hexamethyl-11-oxo-1,2,3,4,4a,5,6,6a,9,10,11,12b,13,14,14a,14b-hexadecahydropicene-2-carboxylic acid] | 30 to 50 | < 30 | 30 to 50 | < 30 | ≥ 80 | 30 to 50 | 50 to 80
11 | CO[C@]1(C)C(=O)C2(C=C3C1=CC=C1[C@@]3(C)CC[C@@]3(C)[C@@H]4C[C@](C)(C(=O)O)CC[C@]4(C)CC[C@]13C)OCCO2 [Compound A54, (4S,6bS,8aS,11R,12aR,12bS,14aR)-4-methoxy-4,6b,8a,11,12b,14a-hexamethyl-3-oxo-4,6b,7,8,8a,9,10,11,12,12a,12b,13,14,14a-tetradecahydro-3H-spiro[picene-2,2′-[1,3]dioxolane]-11-carboxylic acid] | < 30 | < 30 | < 30 | < 30 | < 30 | < 30 | < 30
